Converted amounts (≈) assume the structure as drawn. Where two headings read alike, the source gives them in different places.
Legend:
[1] = TGA weight loss / thermal stability; format: physicochemical
From the text: TGA and DSC patterns were collected on a TA Q5000 thermogravimetric analyzer and a TA Discovery 2500 differential scanning calorimeter, respectively.
TGA results were collected on a TA Discovery 5500 thermogravimetric analyzer, and DSC results were collected on a TA Discovery 2500 differential scanning calorimeter.

[2] = Assessment of dynamic solubility; format: physicochemical; details: for FC: crystal transfer (XRPD of solid) / pH of filtrate: 37° C.; for solubility / solubility at 1 h / solubility at 2 h / solubility at 4 h / solubility at 24 h: 37 °C, thermodynamic from solid; for solubility at 1 h / solubility at 2 h / solubility at 4 h / solubility at 24 h: read-out: S: solubility, calculated as free form
[3] = remark: listed apart in the source
Description: A method for testing the density and the tapped density included: (1) a certain mass of to-be-assessed sample was placed into a 5 mL measuring cylinder, and the volume at this moment was recorded. The bulk density was calculated by dividing the mass of the sample by the volume at this moment. (2) The measuring cylinder was slightly tapped 200 times, the final volume was recorded, and the tapped density was calculated by dividing the mass of the sample by the final volume. (3) Three parallel tests were conducted. A method for testing the angle of repose included: (1) a funnel was fixed vertically to a bottom surface, and the material was slowly placed into the funnel. (2) A well-proportioned cone of the material was formed on the bottom surface. The height and bottom surface diameter of the cone were measured. (3) Three parallel tests were conducted.

[4] = remark: listed apart in the source
From the text: DVS isotherms were collected on an SMS (Surface Measurement Systems) DVS Intrinsic.

SD rats = assay: Acute toxicity test, single oral intragastric administration; format: in vivo; details: female rats
Description: (§1) In this experiment, all animals were randomly divided into 5 groups (5 animals/sex/group), received the drug at 97 mg/kg, 174 mg/kg, 312 mg/kg, 559 mg/kg, and 1000 mg/kg, respectively, and received signal intragastric administration orally. […] All animals received administration according to their latest weighed body weight. The drug was stirred for at least 10 min before administration, and continuously stirred during administration until the administration of the sample at this concentration was completed. The animals were fasted for 11 h to 12 h before administration and resumed eating approximately 2 h after administration, with no restriction on drinking water.
(§2) All animals underwent a comprehensive physical examination by a veterinarian before administration. During the acclimation period, cage-side observation was performed once or twice a day, and detailed clinical observation was performed once a day. During the experiment, cage-side observation was performed twice a day (once on the day of dissection), and detailed clinical observation was performed once or twice a day. All surviving animals were weighed once on the day of random grouping (Day-1), Day 1 (before administration), Day 3, Day 5, Day 7, and Day 8; and their 24±1-hour food consumption was measured once on Day 1 (Day 1 to Day 2), Day 2 (Day 2 to Day 3), and Day 6 (Day 6 to Day 7). At the end of the experimental (Day 8), all surviving animals were euthanized by carbon dioxide inhalation and abdominal aorta/vein bleeding and then subjected to gross anatomical examination. Animals that died during the experiment were also subjected to gross anatomical examination.

[5] = as above; format: in vivo; details: Sprague-Dawley, rat, in vivo
Description: as §1, §2

[6] = Assessment of 24-h solubility in pH buffers; format: physicochemical; details: room temperature

## CC[S@@](=N)(=O)C[C@H]1CC[C@H](N(C)c2ncnc3[nH]ccc23)CC1 [Free crystal form A]
[1]; comparison of TGA/DSC patterns
  thermal stability: high
[1]; heated from room temperature to 180° C.
  TGA weight loss: 1.7%
25° C./60% RH/4 weeks
  UPLC peak Area, RRT 1.00: 99.71%
  UPLC peak Area, RRT 1.47: 0.06%
  UPLC peak Area, RRT 1.63: 0.05%
  UPLC peak Area, RRT 2.10: 0.10%
  UPLC peak Area, RRT 2.94: 0.07%
25° C./60% RH/4 weeks, open
  Crystal form Transform: No
  Purity: 99.71 area %
40° C./75% RH/4 weeks
  UPLC peak Area, RRT 1.00: 99.72%
  UPLC peak Area, RRT 1.47: 0.06%
  UPLC peak Area, RRT 1.63: 0.05%
  UPLC peak Area, RRT 2.10: 0.10%
  UPLC peak Area, RRT 2.94: 0.07%
40° C./75% RH/4 weeks, open
  Crystal form Transform: No
  Purity: 99.72 area %
80° C./1 d
  UPLC peak Area, RRT 1.47: 0.06%
  UPLC peak Area, RRT 1.63: 0.05%
  UPLC peak Area, RRT 2.10: 0.10%
  UPLC peak Area, RRT 2.94: 0.08%
80° C./1 d, closed
  Crystal form Transform: No
Starting
  UPLC peak Area, RRT 1.47: 0.05%
  UPLC peak Area, RRT 1.63: 0.05%
  UPLC peak Area, RRT 2.10: 0.10%
  UPLC peak Area, RRT 2.94: 0.07%
[2]; FaSSIF, 1 h
  FC: crystal transfer (XRPD of solid): No
  pH of filtrate: 6.6
[2]; FaSSIF, 2 h
  FC: crystal transfer (XRPD of solid): No
  pH of filtrate: 6.6
[2]; FaSSIF, 4 h
  FC: crystal transfer (XRPD of solid): No
  pH of filtrate: 6.6
[2]; FaSSIF, 24 h
  FC: crystal transfer (XRPD of solid): No
  pH of filtrate: 6.6
[2]; FeSSIF, 1 h
  FC: crystal transfer (XRPD of solid): No
  pH of filtrate: 5.3
[2]; FeSSIF, 2 h
  FC: crystal transfer (XRPD of solid): No
  pH of filtrate: 5.3
[2]; FeSSIF, 4 h
  FC: crystal transfer (XRPD of solid): No
  pH of filtrate: 5.3
[2]; FeSSIF, 24 h
  FC: crystal transfer (XRPD of solid): No
[2]; H2O and FaSSIF, water, in H2O and FaSSIF
  solubility: 2100 to 2400 µg/mL (≈ 6.26 to 7.15 mM)
[2]; H2O, 1 h
  FC: crystal transfer (XRPD of solid): No
[2]; H2O, 2 h
  FC: crystal transfer (XRPD of solid): No
[2]; H2O, 4 h
  FC: crystal transfer (XRPD of solid): No
  pH of filtrate: 6.7
[2]; H2O, 24 h
  FC: crystal transfer (XRPD of solid): No
[2]; SGF and FeSSIF, simulated gastric fluid, in SGF and FeSSIF, sample not fully dissolved
  solubility: 9000 to 10000 µg/mL (≈ 26.8 to 29.8 mM)
[2]; SGF, 1 h
  FC: crystal transfer (XRPD of solid): No
[2]; SGF, 2 h
  FC: crystal transfer (XRPD of solid): No
  pH of filtrate: 5.2
[2]; SGF, 4 h
  FC: crystal transfer (XRPD of solid): No
  pH of filtrate: 5.2
[2]; SGF, 24 h
  FC: crystal transfer (XRPD of solid): No
[2]; fed state simulated intestinal fluid (FeSSIF), fessif, FeSSIF, 1 h
  solubility at 1 h: 9400 µg/mL (≈ 28 mM)
[2]; fed state simulated intestinal fluid (FeSSIF), fessif, FeSSIF, 2 h
  solubility at 2 h: 9200 µg/mL (≈ 27.4 mM)
[2]; fed state simulated intestinal fluid (FeSSIF), fessif, FeSSIF, 4 h
  solubility at 4 h: 9400 µg/mL (≈ 28 mM)
[2]; fed state simulated intestinal fluid (FeSSIF), fessif, FeSSIF, 24 h
  solubility at 24 h: 9900 µg/mL (≈ 29.5 mM)
[2]; simulated gastric fluid (SGF), simulated gastric fluid, SGF, 1 h
  solubility at 1 h: 9000 µg/mL (≈ 26.8 mM)
[2]; simulated gastric fluid (SGF), simulated gastric fluid, SGF, 2 h
  solubility at 2 h: 8900 µg/mL (≈ 26.5 mM)
[2]; simulated gastric fluid (SGF), simulated gastric fluid, SGF, 4 h
  solubility at 4 h: 8800 µg/mL (≈ 26.2 mM)
[2]; simulated gastric fluid (SGF), simulated gastric fluid, SGF, 24 h
  solubility at 24 h: 9100 µg/mL (≈ 27.1 mM)
[3]; conclusion from Carr index and angle of repose
  flowability: high flowability
[3]; single tests 1 to 3
  Bulk density: 0.11 g/mL
[3]; single tests 1 to 3, tapped 200 times
  Tapped density: 0.23 g/mL
[3]; three parallel tests
  Average bulk density: 0.11 g/mL
[3]; three parallel tests, tapped 200 times
  Average tapped density: 0.23 g/mL
[4]; 25° C./80% RH
  hygroscopicity: slight hygroscopicity
[4]; XRPD before and after DVS
  Crystal transformation after DVS: No
SD rats
  maximum tolerance dose: 174 mg/kg
[5]; oral, female rats, read-out: LD50 95% confidence interval
  LD50 at 7 d: 313 to 558 mg/kg
[5]; oral, male rats, read-out: LD50 95% confidence interval
  LD50 at 7 d: 429 to 818 mg/kg
[5]; oral, male rats, read-out: maximum tolerance dose (MTD)
  MTD at 7 d: 312 mg/kg
[5]; po, female rats, single intragastric administration, 7 d observation, read-out: LD50
  LD50 at 7 d: 418 mg/kg
[5]; po, male rats, single intragastric administration, 7 d observation, read-out: LD50
  LD50 at 7 d: 592 mg/kg
[6]; Buffer (pH = 2.0)
  FC: crystal transfer: No
[6]; Buffer (pH = 7.4)
  FC: crystal transfer: No
[6]; buffer pH 7.4, pH 7.4, aqueous buffer, thermodynamic from solid, Buffer (pH = 7.4), read-out: S: solubility, calculated as free form
  solubility at 24 h: 1700 µg/mL (≈ 5.07 mM)

Source: patent publication US20260224573A1, “CRYSTAL FORM OF COMPOUND, AND PREPARATION METHOD AND USE THEREOF” (FELICAMED BIOTECHNOLOGY CO., LTD., priority 2023, published 2026)
